# From patent publication US20160022684A1, “BET INHIBITOR AND BRUTON'S TYROSINE KINASE INHIBITOR COMBINATIONS” (Pharmacyclics LLC, priority 2014, published 2016)
# How the values were obtained:
# TMD8 = assay: Combined drug treatment cell viability (CellTiter-Glo), ibrutinib with BET inhibitors, TMD8; assay type: cell-based; conditions: JQ1 20 nM, OTX015 100 nM or medium alone (row), 3 days
# Protocol: (§1) The DLBCL cell lines used during the experiments included TMD8, OCI-LY3, OCI-LY10, U-2932 and SU-DHL-2. DLBCL cells at either 1×10^4 cells or 2×10^4 cells were plated onto each well of a 96-W plate (Table 1). […] The 96-W plate was then incubated for 3 days. Cell viability was examined using a CellTiter-Glo assay. A 40 μL of CellTiter-Glo reagent was added directly into each well of the 96-W plate. The plate was then shaken on a Shaker ([…]) at speed 5 for 10-20 min at room temperature. Next, about 100 μL of the mixed medium was transferred to a white, non-transparent, flat bottom 96-W plate for assaying. […] Measurements were taken at room temperature. CellTiter-Glow reagents were thawed prior to use. Cells pre-plated onto a second 96-W plate and incubated at room temperature for 30 minutes were used for calibration purposes. […] CI is a quantitative description of the interaction property of the combination of two drugs.
# OCI-LY10 = assay: Combined drug treatment cell viability (CellTiter-Glo), ibrutinib with BET inhibitors, OCI-LY10; assay type: cell-based; conditions: OCI-LY-10, JQ1 1 uM, OTX015 1 uM or medium alone (row), 3 days
# Protocol: as §1
# OCI-LY3 = assay: Combined drug treatment cell viability (CellTiter-Glo), ibrutinib with BET inhibitors, OCI-LY3; assay type: cell-based; conditions: OCI-LY-3, JQ1 1 uM, OTX015 1 uM or medium alone (row), 3 days
# Protocol: as §1
# U-2932 = assay: Combined drug treatment cell viability (CellTiter-Glo), ibrutinib with BET inhibitors, U-2932; assay type: cell-based; conditions: U2932, JQ1 20 nM, OTX015 50 nM (Table 2) or medium alone (row), 3 days
# Protocol: as §1
# SU-DHL-2 = assay: Combined drug treatment cell viability (CellTiter-Glo), ibrutinib with BET inhibitors, SU-DHL-2; assay type: cell-based; conditions: JQ1 100 nM, OTX015 1 uM (Table 2) or medium alone (row), 3 days
# Protocol: as §1
# [1] = system: activated B-cell like (ABC) subtype of DLBCL; conditions: patients with ABC subtype of DLBCL; cited from earlier work
# [2] = ibrutinib 0.0256 nM with I-BET151 200 nM
# [3] = ibrutinib 0.64 nM with I-BET151 200 nM
# [4] = ibrutinib 3.2 nM with I-BET151 200 nM
# [5] = ibrutinib 16 nM with I-BET151 200 nM
# [6] = ibrutinib 80 nM with I-BET151 200 nM
# [7] = ibrutinib 400 nM with I-BET151 200 nM
# [8] = ibrutinib 2000 nM with I-BET151 200 nM
# [9] = ibrutinib 10000 nM with I-BET151 200 nM
# [10] = ibrutinib […] with I-BET151 200 nM
# [11] = ibrutinib 0.0256 nM with I-BET151 5 uM
# [12] = ibrutinib 0.64 nM with I-BET151 5 uM
# [13] = ibrutinib 3.2 nM with I-BET151 5 uM
# [14] = ibrutinib 16 nM with I-BET151 5 uM
# [15] = ibrutinib 80 nM with I-BET151 5 uM
# [16] = ibrutinib 400 nM with I-BET151 5 uM
# [17] = ibrutinib 2000 nM with I-BET151 5 uM
# [18] = ibrutinib 10000 nM with I-BET151 5 uM
# [19] = ibrutinib […] with I-BET151 5 uM
smiles,measurement,setting,value
"C=CC(=O)N1CCC[C@@H](n2nc(-c3ccc(Oc4ccccc4)cc3)c3c(N)ncnc32)C1 [ibrutinib, 1-((R)-3-(4-amino-3-(4-phenoxyphenyl)-1H-pyrazolo[3,4-d]pyrimidin-1-yl)piperidin-1-yl)prop-2-en-1-one]",luminescent signals,TMD8; [2],32496.06
same,luminescent signals,TMD8; [3],29180.29
same,luminescent signals,TMD8; [4],31383.77
same,luminescent signals,TMD8; [5],27190.31
same,luminescent signals,TMD8; [6],28263.05
same,luminescent signals,TMD8; [7],25674.76
same,luminescent signals,TMD8; [8],23421.2
same,luminescent signals,TMD8; [9],10819.72
same,luminescent signals,TMD8; [10],32828.16
same,luminescent signals,OCI-LY10; [11],61548.88
same,luminescent signals,OCI-LY10; [12],63983.91
same,luminescent signals,OCI-LY10; [13],51190.81
same,luminescent signals,OCI-LY10; [14],27324.38
same,luminescent signals,OCI-LY10; [15],23511.43
same,luminescent signals,OCI-LY10; [16],23784.91
same,luminescent signals,OCI-LY10; [17],24452.84
same,luminescent signals,OCI-LY10; [18],24826.24
same,luminescent signals,OCI-LY10; [19],68196.56
same,luminescent signals,OCI-LY3; [11],63957.7
same,luminescent signals,OCI-LY3; [12],63322.7
same,luminescent signals,OCI-LY3; [13],66789.02
same,luminescent signals,OCI-LY3; [14],64655.7
same,luminescent signals,OCI-LY3; [15],68972.2
same,luminescent signals,OCI-LY3; [16],64472.02
same,luminescent signals,OCI-LY3; [17],55749.79
same,luminescent signals,OCI-LY3; [18],63477.51
same,luminescent signals,OCI-LY3; [19],59441.78
same,luminescent signals,U-2932; [2],63123.8
same,luminescent signals,U-2932; [3],53722.16
same,luminescent signals,U-2932; [4],53031.79
same,luminescent signals,U-2932; [5],51023.93
same,luminescent signals,U-2932; [6],49777.58
same,luminescent signals,U-2932; [7],46009.54
same,luminescent signals,U-2932; [8],46858.01
same,luminescent signals,U-2932; [9],37935.94
same,luminescent signals,U-2932; [10],57150.28
same,luminescent signals,SU-DHL-2; ibrutinib 0.0256 nM with I-BET151 2 uM,141202
same,luminescent signals,SU-DHL-2; ibrutinib 0.64 nM with I-BET151 2 uM,159399
same,luminescent signals,SU-DHL-2; ibrutinib 3.2 nM with I-BET151 2 uM,161613.5
same,luminescent signals,SU-DHL-2; ibrutinib 16 nM with I-BET151 2 uM,155353.5
same,luminescent signals,SU-DHL-2; ibrutinib 80 nM with I-BET151 2 uM,164140.7
same,luminescent signals,SU-DHL-2; ibrutinib 400 nM with I-BET151 2 uM,159908.6
same,luminescent signals,SU-DHL-2; ibrutinib 2000 nM with I-BET151 2 uM,154426.1
same,luminescent signals,SU-DHL-2; ibrutinib 10000 nM with I-BET151 2 uM,111485.8
same,luminescent signals,SU-DHL-2; ibrutinib […] with I-BET151 2 uM,146159.1
same,overall response rate,[1],41%
same,overall survival,[1],9.7 month
